Laboratory results from patent publication US8188100B2, “Adenosine derivatives as A2A receptor agonists” (Novartis AG, priority 2006, dated 2012).

Molecular target: adenosine A2A receptor (Homo sapiens, UniProt P29274)
Test: adenosine A2A receptor agonist assay (method of Murphree et al.)
Assay type: binding
Conditions: method described by Murphree et al., Mol Pharmacol, Vol. 61, pp. 455-462 (2002)
Excerpt: Compounds of formula (I) and their pharmaceutically acceptable salts are useful as pharmaceuticals. In particular, they activate the adenosine A2A receptor, i.e., they act as A2A receptor agonists.

Chain of adenosine A2A receptor (P29274 whole entry): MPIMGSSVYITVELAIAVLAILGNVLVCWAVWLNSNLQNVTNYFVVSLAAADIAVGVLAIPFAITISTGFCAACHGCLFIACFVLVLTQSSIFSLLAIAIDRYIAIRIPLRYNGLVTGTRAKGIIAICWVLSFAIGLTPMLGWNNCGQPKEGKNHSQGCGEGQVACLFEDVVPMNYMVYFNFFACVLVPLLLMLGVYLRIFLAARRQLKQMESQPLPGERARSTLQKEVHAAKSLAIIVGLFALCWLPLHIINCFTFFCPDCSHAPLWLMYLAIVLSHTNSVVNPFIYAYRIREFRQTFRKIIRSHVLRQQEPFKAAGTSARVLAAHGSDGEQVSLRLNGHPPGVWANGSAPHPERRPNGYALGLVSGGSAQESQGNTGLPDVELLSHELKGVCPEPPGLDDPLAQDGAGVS

In the case of `CCC(=O)N[C@H]1C[C@@H](n2cnc3c(NCC(c4ccccc4)c4ccccc4)nc(N4CC[C@@H](Nc5nc(Cl)nc6c5ncn6[C@@H]5C[C@H](NC(=O)CC)[C@@H](O)[C@H]5O)C4)nc32)[C@H](O)[C@@H]1O` [Example 1, {(1S,2R,3S,4R)-4-[2-{(R)-3-[2-Chloro-9-((1R,2S,3R,4S)-2,3-dihydroxy-4-propionylamino-cyclopentyl)-9H-purin-6-ylamino]-pyrrolidin-1-yl}-6-(2,2-diphenyl-ethylamino)-purin-9-yl]-2,3-dihydroxy-cyclopentyl}-propionamide], the Ki is reported as 760 nM.
